The values that follow come from patent US8828696B2, “Use of Penicillin G Procaine as a selective antimicrobial agent in the production of alcohol by fermentation” (Lallemand Specialites, Inc, priority 2008, dated 2014).

Each structure is given as a SMILES string.

In this assay the test system is Saccharomyces cerevisiae yeast. As to the kind of experiment: Laboratory fermentation trial: formation of alcohol and lactic acid (HPLC). It is filed as cell-based. The procedure: A study was conducted to determine the degree of impact of the fermentation antimicrobial Penicillin G Procaine and Penicillin G potassium during alcohol production by fermentation. The antimicrobial impact was inferred by conducting a series of fermentations and measuring if the above said antibiotics interfered with the cell growth and the fermentation function of Saccharomyces cerevisiae yeast used in the fermentation phase. This study provided analysis of what impact, if any, the Penicillin G Procaine or Penicillin G Potassium has on the yeast during lab scale fermentations, specifically BioFerm® XR yeast from North American Bioproducts Corporation (NABC). This study observed the ability of yeast to replicate and ferment a corn mash substrate with and without the presence of Penicillin G Procaine or Penicillin G Potassium. This study was set up in a series of fermentation vessels. All antibiotic concentrations were tested in triplicate. Cell counts were done on one flask for each treatment at 12, 24, 36 and 48 hours and testing of the fermentation reactions by HPLC was also performed at 12, 24, 36 and 48 hours. The experiment was set as follows: 3. Fermentations were set up using 31% solids corn mash using saccharifying enzymes and the following procedure: A. Yeast Conditioning: • 1. Add 2 g yeast to 10 ml sterile water for each 3 flasks to test, (14 g yeast to 70 ml water) into a sterile 250 ml flask and place in water bath set to 100° F. • 2. Incubate at 100° F. for 30 minutes with occasional mixing. • 3. Remove flasks from water bath and divide suspension between the all flasks for the trial. B. Fermentation Procedure • 1. To prepared mash, add the following. • a. Add 0.58 g urea/liter mash and mix. • b. Add 0.2 ml GA per liter and mix. • 2. Remove sample for background HPLC testing. • 3. Add antibiotic solution to labeled sterile 250 ml flasks. • 4. Add hydrated yeast suspension to mash and mix well. • 5. Add sterile stir bar to each flask and add about 150 ml mash into each 250 ml flask for a total of 21 flasks. • 6. Cover each flask with a gas trap in a sterilized stopper. • 7. Place in a 33° C. water bath with continuous mixing at 280 rpm at 75% power. • 8. Remove sample at 12 hr interval to perform cell count, viability and budding. • 9. Incubate sample up to 48 hours, enough time for complete fermentation • 10. Collect samples at the following times for cell counts and HPLC testing: 12 hours; 24 hours; 36 hours and 48 hours The proper functioning of the yeast is often attributed to the higher efficiency with which it can convert the sugars formed in a fermentation process to the desired alcohol. Also the number of yeast cells in a fermentation mix is an important factor as it will be entropically favored to convert the available sugar molecules to ethanol and carbon dioxide. The sugar in the fermentation mix apart from being converted to ethanol is also used by the yeast for its metabolism and growth and by the concerned “industry normal” Lactobacillus fermentum bacteria converting the sugar to lactic acid.

Consider `CC1(C)S[C@@H]2[C@H](NC(=O)Cc3ccccc3)C(=O)N2[C@H]1C(=O)[O-].[K+]` [Penicillin G Potassium], for which the “% Lactic Acid” value by setting is: (5 ppm, 12 hours) 0.083%; (5 ppm, 24 hours) 0.100%; (5 ppm, 36 hours) 0.108%; (5 ppm, 48 hours) 0.104%; (15 ppm, 12 hours) 0.081%; (15 ppm, 24 hours) 0.100%. Also, the “% Lactic Acid” value (15 ppm, 36 hours) is on record as 0.105%; the “% Lactic Acid” value (15 ppm, 48 hours) is on record as 0.100%; the “% Lactic Acid” value (30 ppm, 12 hours) came out at 0.082%; the “% Lactic Acid” value (30 ppm, 24 hours) was determined as 0.096%; the “% Lactic Acid” value (30 ppm, 36 hours) is given as 0.106%; the “% Lactic Acid” value (30 ppm, 48 hours) is 0.101%. For the same compound, the “% wt EtOH” value runs as follows: (5 ppm, 12 hours) 6.16 % wt; (5 ppm, 24 hours) 9.12 % wt; (5 ppm, 36 hours) 11.12 % wt; (5 ppm, 48 hours) 11.89 % wt; (15 ppm, 12 hours) 6.05 % wt; (15 ppm, 24 hours) 9.15 % wt. Further, the “% wt EtOH” value worked out at 11.05 % wt (15 ppm, 36 hours); 11.92 % wt (15 ppm, 48 hours); 6.07 % wt (30 ppm, 12 hours); 9.13 % wt (30 ppm, 24 hours); 11.12 % wt (30 ppm, 36 hours); 11.83 % wt (30 ppm, 48 hours).

`CC1(C)S[C@@H]2[C@H](NC(=O)Cc3ccccc3)C(=O)N2[C@H]1C(=O)O.CCN(CC)CCOC(=O)c1ccc(N)cc1` [Penicillin G Procaine]: the “% Lactic Acid” value was 0.082% (5 ppm, 12 hours); 0.098% (5 ppm, 24 hours); 0.108% (5 ppm, 36 hours); 0.104% (5 ppm, 48 hours); 0.085% (15 ppm, 12 hours); 0.099% (15 ppm, 24 hours). The “% Lactic Acid” value turned out to be 0.106% (15 ppm, 36 hours); 0.099% (15 ppm, 48 hours); 0.081% (30 ppm, 12 hours); 0.098% (30 ppm, 24 hours); 0.103% (30 ppm, 36 hours); 0.100% (30 ppm, 48 hours). The “% wt EtOH” value came out at 6.21 % wt (5 ppm, 12 hours); 9.24 % wt (5 ppm, 24 hours); 11.14 % wt (5 ppm, 36 hours); 11.94 % wt (5 ppm, 48 hours); 6.16 % wt (15 ppm, 12 hours); 9.13 % wt (15 ppm, 24 hours). The “% wt EtOH” value turned out to be 11.13 % wt (15 ppm, 36 hours); 11.98 % wt (15 ppm, 48 hours); 6.34 % wt (30 ppm, 12 hours); 9.16 % wt (30 ppm, 24 hours); 11.18 % wt (30 ppm, 36 hours); 11.91 % wt (30 ppm, 48 hours).
